Assay results published in ChEMBL document CHEMBL3885881, “DrugMatrix”.
Several values for one entry are separate records, joined by “and”; a condition that tells them apart may be missing. Equal values may be shown once.

Organism: Rattus norvegicus
Experiment: DrugMatrix - Regimen: Daily Repeat
Type: toxicity, organism-based, Sprague-Dawley
Parameters: regimen Daily Repeat, gender Male, age 6-8 weeks
Details: in vivo, ip, route intraperitoneal, vehicle 100 % SALINE; for ABSOLUTE BASOPHIL / ABSOLUTE EOSINOPHIL / ABSOLUTE LYMPHOCYTE / ABSOLUTE MONOCYTE / ABSOLUTE SEGMENTED NEUTROPHIL / BASOPHIL / EOSINOPHIL / ERYTHROCYTE COUNT / HEMATOCRIT / HEMOGLOBIN / LEUKOCYTE COUNT / LYMPHOCYTE / MEAN CORPUSCULAR HEMOGLOBIN / MEAN CORPUSCULAR HEMOGLOBIN CONCENTRATION / MEAN CORPUSCULAR VOLUME / MONOCYTE / NEUTROPHIL / PLATELET COUNT: tissue Blood
[1] = 0 mg/kg, 120 h, dose level Control, time 5 day
[2] = 0 mg/kg, 120 h, tissue Plasma, dose level Control, time 5 day
[3] = 0 mg/kg, […], dose level Control, time 14 day
[4] = 0 mg/kg, […], dose level Control, time 28 day
[5] = 0 mg/kg, […], tissue Plasma, dose level Control, time 14 day
[6] = 0 mg/kg, […], tissue Plasma, dose level Control, time 28 day
[7] = 2 mg/kg, 120 h, dose level High, time 5 day

LEAD (II) ACETATE
ABSOLUTE BASOPHIL [1]: 32 cells/µL | ABSOLUTE EOSINOPHIL [1]: 110 cells/µL | ABSOLUTE LYMPHOCYTE [1]: 6630 cells/µL | ABSOLUTE MONOCYTE [1]: 140 cells/µL | ABSOLUTE SEGMENTED NEUTROPHIL [1]: 1170 cells/µL | BASOPHIL [1]: 0.38% and 0.35% | EOSINOPHIL [1]: 1.28% and 0.62% | ERYTHROCYTE COUNT [1]: 7.45 x10E6/uL and 7.26 x10E6/uL | HEMATOCRIT [1]: 45.74% and 47.97% | HEMOGLOBIN [1]: 14.72 G/DL and 15.38 G/DL | LEUKOCYTE COUNT [1]: 8.11 x10E3/uL and 8.68 x10E3/uL | LYMPHOCYTE [1]: 81.3% and 86.77% | MEAN CORPUSCULAR HEMOGLOBIN [1]: 19.76 pg and 21.18 pg | MEAN CORPUSCULAR HEMOGLOBIN CONCENTRATION [1]: 32.16 G/DL and 32.05 G/DL | MEAN CORPUSCULAR VOLUME [1]: 61.38 fL and 66.15 fL | MONOCYTE [1]: 1.76% and 1.57% | NEUTROPHIL [1]: 14.9% and 9.53% | PLATELET COUNT [1]: 1322.4 x10E3/uL and 1786 x10E3/uL | ALANINE AMINOTRANSFERASE [2]: 25.8 u/L and 20.5 u/L | ALBUMIN [2]: 3.64 G/DL and 4.35 G/DL | ALKALINE PHOSPHATASE [2]: 300 u/L | ASPARTATE AMINOTRANSFERASE [2]: 81.4 u/L and 86.75 u/L | BLOOD UREA NITROGEN [2]: 14.4 mg/dL and 17 mg/dL | CARBON DIOXIDE [2]: 29 mmol/L | CHOLESTEROL [2]: 69.2 mg/dL and 51.25 mg/dL | CREATINE PHOSPHOKINASE [2]: 303.2 u/L and 384.75 u/L | CREATININE [2]: 0.56 mg/dL and 0.47 mg/dL | GLUCOSE [2]: 125.4 mg/dL and 128.75 mg/dL | LACTATE DEHYDROGENASE [2]: 105.4 u/L and 145 u/L | LIPASE [2]: 22.4 u/L and 13.25 u/L | PHOSPHORUS [2]: 11.8 mg/dL | POTASSIUM [2]: 5.52 MEQ/L and 6.58 MEQ/L | SODIUM [2]: 147 MEQ/L and 151 MEQ/L | TOTAL BILIRUBIN [2]: 0.2 mg/dL and 0.33 mg/dL | TOTAL PROTEIN [2]: 6.1 G/DL and 6.53 G/DL | URIC ACID [2]: 1.06 mg/dL and 1.95 mg/dL | ABSOLUTE BASOPHIL [3]: 130 cells/µL | ABSOLUTE EOSINOPHIL [3]: 140 cells/µL | ABSOLUTE LYMPHOCYTE [3]: 13500 cells/µL | ABSOLUTE MONOCYTE [3]: 400 cells/µL | ABSOLUTE SEGMENTED NEUTROPHIL [3]: 2330 cells/µL | HEMATOCRIT [3]: 45.98% | HEMOGLOBIN [3]: 15.17 G/DL | MEAN CORPUSCULAR VOLUME [3]: 59.4 fL | NEUTROPHIL [3]: 14.14% | ABSOLUTE BASOPHIL [4]: 91 cells/µL | ABSOLUTE EOSINOPHIL [4]: 110 cells/µL | ABSOLUTE LYMPHOCYTE [4]: 9910 cells/µL | ABSOLUTE MONOCYTE [4]: 210 cells/µL | ABSOLUTE SEGMENTED NEUTROPHIL [4]: 1560 cells/µL | BASOPHIL [4]: 0.77% | EOSINOPHIL [4]: 0.92% | ERYTHROCYTE COUNT [4]: 8.21 x10E6/uL | HEMATOCRIT [4]: 47.53% | HEMOGLOBIN [4]: 15.65 G/DL | LEUKOCYTE COUNT [4]: 11.91 x10E3/uL | LYMPHOCYTE [4]: 83.34% | MEAN CORPUSCULAR HEMOGLOBIN [4]: 19.07 pg | MEAN CORPUSCULAR HEMOGLOBIN CONCENTRATION [4]: 32.93 G/DL | MEAN CORPUSCULAR VOLUME [4]: 57.9 fL | MONOCYTE [4]: 1.68% | NEUTROPHIL [4]: 12.97% | PLATELET COUNT [4]: 1323.8 x10E3/uL | ALBUMIN [5]: 3.66 G/DL | CARBON DIOXIDE [5]: 25 mmol/L | CHLORIDE [5]: 107 MEQ/L | CREATINE PHOSPHOKINASE [5]: 410.25 u/L | SODIUM [5]: 149.2 MEQ/L | URIC ACID [5]: 0.94 mg/dL | ALANINE AMINOTRANSFERASE [6]: 30 u/L | ALBUMIN [6]: 3.71 G/DL | ALKALINE PHOSPHATASE [6]: 186.8 u/L | ASPARTATE AMINOTRANSFERASE [6]: 78.2 u/L | BLOOD UREA NITROGEN [6]: 14.2 mg/dL | CHOLESTEROL [6]: 44.9 mg/dL | CREATINE PHOSPHOKINASE [6]: 334.3 u/L | CREATININE [6]: 0.6 mg/dL | GLUCOSE [6]: 147.2 mg/dL | LACTATE DEHYDROGENASE [6]: 123.1 u/L | LIPASE [6]: 9.6 u/L | PHOSPHORUS [6]: 10.01 mg/dL | POTASSIUM [6]: 6.57 MEQ/L | SODIUM [6]: 149.5 MEQ/L | TOTAL BILIRUBIN [6]: 0.21 mg/dL | TOTAL PROTEIN [6]: 6.66 G/DL | URIC ACID [6]: 1.26 mg/dL | ABSOLUTE BASOPHIL [7]: 120 cells/µL | ABSOLUTE EOSINOPHIL [7]: 150 cells/µL | ABSOLUTE LYMPHOCYTE [7]: 10100 cells/µL | ABSOLUTE MONOCYTE [7]: 250 cells/µL | ABSOLUTE SEGMENTED NEUTROPHIL [7]: 2470 cells/µL
